Several values for one entry are separate records, joined by “and”; a condition that tells them apart may be missing. Equal entries are not always repeated. Where two headings read alike, the source gives them in different places.
Experiments:
CaCo-2 cells = test: MTT cytotoxicity assay; assay type: cell-based, human; details: 24 h of incubation relative to untreated controls
Procedure: To evaluate the biological activity of the PBn series, compounds were screened for toxicity against the colon-rectal cancer cell line CaCo-2 (ATCC HTB-37). These human cancer cells were treated with solutions of the compounds at decreasing concentrations, starting from 100 μM up to 0.01 μM. The reference compound used for these assays was 5-Fluorouracil (5-Fu), a pyrimidine analogue belonging to the family of antimetabolite. […] Briefly, human colorectal adenocarcinoma cells (CaCo-2 HTB-37^TM Colorectal Adenocarcinoma Human, American Type Culture Collection, Manassas, VA, USA) were grown in Dulbecco’s MEM (DMEM) with 10% heat-inactivated fetal bovine serum, 2 mM L-Alanyl-L-Glutamine, penicillin-streptomycin (50 units-50 μg for mL) and incubated at 37 °C in a humidified atmosphere of 5% CO2, 95% air. CaCo-2 cells were plated in 96 well pates and incubated at 37 °C. The PBn series compounds and 5-FU were prepared as a 1 mM solution in 10 mL with 0.01% DMSO. Then, 24 h after plating, cells were treated with 20 μL of each solution. Untreated cells were used as controls. […] The results were read on a multiwell scanning spectrophotometer (AF2200 plate reader, Eppendorf, Milan, Italy), using a wavelength of 569 nm.

S.aureus USA300-CAMRSA = test: MIC and MBC microtiter plate assay; assay type: cell-based, Staphylococcus aureus
E. coli ATCC25922 = test: MIC and MBC microtiter plate assay, also with different inocula; assay type: cell-based, Escherichia coli
[1] = system: Gram-positive control strains; test: MIC and MBC, summary over Gram-positive control strains; assay type: cell-based, S. aureus and Enterococcus spp.
S.aureus ATCC29213-MSSA = test: MIC and MBC microtiter plate assay; assay type: cell-based, Staphylococcus aureus
[2] = system: Gram-positive and Gram-negative ATCC strains; test: MIC and MBC, summary over Gram-positive and Gram-negative strains; assay type: cell-based; details: bactericidal effect defined as MBC/MIC ≤ 4
[3] = system: E. faecalis ATCC51299-VRE; test: MIC and MBC microtiter plate assay, also with different inocula; assay type: cell-based
K. pneumoniae ATCC700603 = test: MIC microtiter plate assay; assay type: cell-based, Klebsiella pneumoniae
S.aureus ATCC12598-MSSA = test: MIC and MBC microtiter plate assay, also with different inocula; assay type: cell-based, Staphylococcus aureus
[4] = system: K. pneumoniae ATCC BAA-2814; test: MIC microtiter plate assay; assay type: cell-based, Klebsiella pneumoniae; details: K. pneumoniae ATCC BAA-2814 (MDR strain)
P. aeruginosa ATCC27853 = test: MIC microtiter plate assay; assay type: cell-based, Pseudomonas aeruginosa
[5] = system: E. faecalis ATCC29212-VSE; test: MIC and MBC microtiter plate assay; assay type: cell-based
S.aureus Mu50-VISA = test: MIC and MBC microtiter plate assay; assay type: cell-based, Staphylococcus aureus
A. baumannii ATCC17978 = test: MIC and MBC microtiter plate assay, also with different inocula; assay type: cell-based, Acinetobacter baumannii
[6] = E. faecalis ATCC51299-VRE, value in brackets
[7] = S.aureus ATCC12598-MSSA, value in brackets
[8] = A. baumannii ATCC17978, value in brackets

CN(C)c1ccc(/C=C/c2cccc(/C=C/c3ccc(N(C)C)cc3)[n+]2C)cc1.[I-] [PB4]
IC50 (CaCo-2 cells): 319 nM and 320 nM | MBC (S.aureus USA300-CAMRSA): 2 mg/L | MIC (S.aureus USA300-CAMRSA): 0.25 mg/L | MBC (S.aureus USA300-CAMRSA; value in brackets): 3.91 µM | MIC (S.aureus USA300-CAMRSA; value in brackets): 0.49 µM | MBC (E. coli ATCC25922): 4 mg/L | MIC (E. coli ATCC25922): 1 mg/L | MIC (E. coli ATCC25922; inoculum 1.00101 (1 × 10^1 CFU/mL)): 0.5 mg/L and 0.98 μM | MIC (E. coli ATCC25922; inoculum 1.00102 (1 × 10^2 CFU/mL)): 0.5 mg/L and 0.98 μM | MIC (E. coli ATCC25922; inoculum 1.00103 (1 × 10^3 CFU/mL)): 0.5 mg/L and 0.98 μM | MIC (E. coli ATCC25922; inoculum 1.00104 (1 × 10^4 CFU/mL)): 0.5 mg/L and 0.98 μM | MIC (E. coli ATCC25922; inoculum 1.00105 (1 × 10^5 CFU/mL)): 1 mg/L and 1.96 μM | MIC (E. coli ATCC25922; inoculum 1.00106 (1 × 10^6 CFU/mL)): 1 mg/L and 1.96 μM | MIC (E. coli ATCC25922; inoculum 1.00107 (1 × 10^7 CFU/mL)): 2 mg/L and 3.91 μM | MBC (E. coli ATCC25922; value in brackets): 7.82 µM | MIC (E. coli ATCC25922; value in brackets): 1.96 µM | comparison between MIC and MBC values ([1]; Gram-positive control strains): three values of difference | MIC ([1]; over the Gram-positive control strains (S. aureus and Enterococcus spp.)): ≤ 16 mg/L | MBC (S.aureus ATCC29213-MSSA): 2 mg/L | MIC (S.aureus ATCC29213-MSSA): 0.25 mg/L | MBC (S.aureus ATCC29213-MSSA; value in brackets): 3.91 µM | MIC (S.aureus ATCC29213-MSSA; value in brackets): 0.49 µM | MBC/MIC [2]: ≤ 4 | MBC ([3]; E. faecalis ATCC51299-VRE): 4 mg/L | MIC ([3]; E. faecalis ATCC51299-VRE): 0.5 mg/L | MBC [3, 6]: 7.82 µM | MIC [3, 6]: 0.98 µM | MIC ([3]; E. faecalis ATCC51299, inoculum 1.00101 (1 × 10^1 CFU/mL)): 0.06 mg/L and 0.12 μM | MIC ([3]; E. faecalis ATCC51299, inoculum 1.00102 (1 × 10^2 CFU/mL)): 0.25 mg/L | MIC ([3]; E. faecalis ATCC51299, inoculum 1.00103 (1 × 10^3 CFU/mL)): 0.12 mg/L | MIC ([3]; E. faecalis ATCC51299, inoculum 1.00104 (1 × 10^4 CFU/mL)): 0.12 mg/L and 0.24 μM | MIC ([3]; E. faecalis ATCC51299, inoculum 1.00105 (1 × 10^5 CFU/mL, standard)): 0.5 mg/L and 0.98 μM | MIC ([3]; E. faecalis ATCC51299, inoculum 1.00106 (1 × 10^6 CFU/mL)): 0.5 mg/L and 0.98 μM | MIC ([3]; E. faecalis ATCC51299, inoculum 1.00107 (1 × 10^7 CFU/mL)): 0.5 mg/L and 0.98 μM | MIC (K. pneumoniae ATCC700603): > 128 mg/L | MIC (K. pneumoniae ATCC700603; value in brackets): > 250.27 µM | MIC (S.aureus ATCC12598-MSSA; S. aureus ATCC12598, inoculum 1.00101 (1 × 10^1 CFU/mL)): < 0.015 mg/L and < 0.03 μM | MIC (S.aureus ATCC12598-MSSA; S. aureus ATCC12598, inoculum 1.00102 (1 × 10^2 CFU/mL)): < 0.015 mg/L and < 0.03 μM | MIC (S.aureus ATCC12598-MSSA; S. aureus ATCC12598, inoculum 1.00103 (1 × 10^3 CFU/mL)): < 0.03 μM and < 0.015 mg/L | MIC (S.aureus ATCC12598-MSSA; S. aureus ATCC12598, inoculum 1.00104 (1 × 10^4 CFU/mL)): 0.03 mg/L and 0.06 μM | MIC (S.aureus ATCC12598-MSSA; S. aureus ATCC12598, inoculum 1.00105 (1 × 10^5 CFU/mL, standard)): 0.25 mg/L and 0.49 μM | MIC (S.aureus ATCC12598-MSSA; S. aureus ATCC12598, inoculum 1.00106 (1 × 10^6 CFU/mL)): 0.25 mg/L and 0.49 μM | MIC (S.aureus ATCC12598-MSSA; S. aureus ATCC12598, inoculum 1.00107 (1 × 10^7 CFU/mL)): 4 mg/L and 7.82 μM | MBC (S.aureus ATCC12598-MSSA; S.aureus ATCC12598-MSSA): 2 mg/L | MIC (S.aureus ATCC12598-MSSA; S.aureus ATCC12598-MSSA): 0.25 mg/L | MBC (S.aureus ATCC12598-MSSA; [7]): 3.91 µM | MIC (S.aureus ATCC12598-MSSA; [7]): 0.49 µM | MIC [4]: 64 mg/L | MIC ([4]; value in brackets): 125.14 µM | MIC (P. aeruginosa ATCC27853): 64 mg/L | MIC (P. aeruginosa ATCC27853; value in brackets): 125.14 µM | MBC [5]: 4 mg/L | MIC [5]: 0.5 mg/L | MBC ([5]; value in brackets): 7.82 µM | MIC ([5]; value in brackets): 0.98 µM | MBC (S.aureus Mu50-VISA): 2 mg/L | MIC (S.aureus Mu50-VISA): 0.25 mg/L | MBC (S.aureus Mu50-VISA; value in brackets): 3.91 µM | MIC (S.aureus Mu50-VISA; value in brackets): 0.49 µM | MBC (A. baumannii ATCC17978; A. baumannii ATCC17978): 0.5 mg/L | MIC (A. baumannii ATCC17978; A. baumannii ATCC17978): 0.25 mg/L | MIC (A. baumannii ATCC17978; A. baumannii ATCC 17978, inoculum 1.00101 (1 × 10^1 CFU/mL)): < 0.25 mg/L and < 0.49 μM | MIC (A. baumannii ATCC17978; A. baumannii ATCC 17978, inoculum 1.00102 (1 × 10^2 CFU/mL)): < 0.25 mg/L and < 0.49 μM | MIC (A. baumannii ATCC17978; A. baumannii ATCC 17978, inoculum 1.00103 (1 × 10^3 CFU/mL)): < 0.49 μM and < 0.25 mg/L | MIC (A. baumannii ATCC17978; A. baumannii ATCC 17978, inoculum 1.00104 (1 × 10^4 CFU/mL)): 0.25 mg/L and 0.49 μM | MIC (A. baumannii ATCC17978; A. baumannii ATCC 17978, inoculum 1.00105 (1 × 10^5 CFU/mL)): 0.25 mg/L and 0.49 μM | MIC (A. baumannii ATCC17978; A. baumannii ATCC 17978, inoculum 1.00106 (1 × 10^6 CFU/mL)): 0.49 µM | MIC (A. baumannii ATCC17978; A. baumannii ATCC 17978, inoculum 1.00107 (1 × 10^7 CFU/mL)): 1 mg/L and 1.96 μM | MBC (A. baumannii ATCC17978; [8]): 0.98 µM | MIC (A. baumannii ATCC17978; [8]): 0.49 µM
